Consider 20 compounds from US20220024921A1, “1,3,4-OXADIAZOLONE COMPOUND AND PHARMACEUTICAL” (NIPPON SHINYAKU CO., LTD., priority 2018, published 2022).

Experiment [1] addresses T1, PIM1 serine/threonine kinase (Homo sapiens, UniProt P11309).
T1 construct: purchased Carna Bioscience, Inc
Briefly: PIM1 serine/threonine kinase inhibitory effect. The experiment is classed as biochemical. Conditions: PIM1 serine/threonine kinase activity; ATP 40 μM; 30° C., 30 minutes. The method in brief: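 Recombinant PIM1 (0.15 μg/ml final) with 0.5 μM biotinylated substrate and 40 μM ATP in pH 7.0 HEPES/MgCl2 buffer, 30 min at 30° C. Compound range was 0.01–10000 nM final, n=2. HTRF detection with streptavidin-XL665 and anti-phospho antibody-cryptate, 1 h; IC50 from non-linear regression of the 665/620 ratio.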

The target in experiment [2] is PIM1 transgenic cells (Ba/F3) (Homo sapiens, UniProt P11309). Briefly: Proliferation inhibitory effect on PIM1 transgenic cells. The experiment is classed as cell-based, mouse. Conditions: proliferation inhibition, 72 hours, Cell Counting Kit-8, read-out: PIM1 IC50. The method in brief:
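Mouse Ba/F3 pro-B cells were retrovirally transduced with human PIM1 so that their proliferation depends on PIM1. Cells were treated with compound at 1–10000 nM final for 72 h, then read by CCK-8 (OD450−OD650). Inhibition was set against DMSO (0%) and no-cell blank (100%), and IC50 was obtained by two-parameter logistic regression.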

The test system of experiment [3] is graft-versus-host disease model CB6F1 mice. In words: Lymphocyte proliferation inhibitory effect using graft-versus-host disease model animals (splenomegaly formation). The experiment is classed as in vivo. The following applies: Mus musculus, 240 h, oral, twice a day for 10 days, GVHD model CB6F1 mice, read-out: Inhibition rate (%) (splenomegaly formation); for inhibition in vivo at 10 mg/kg: single dose 10 mg/kg; for inhibition in vivo at 20 mg/kg: single dose 20 mg/kg; for inhibition in vivo at 6 mg/kg: single dose 6 mg/kg; for inhibition in vivo at 30 mg/kg: single dose 30 mg/kg. As for the experimental part:
BALB/c mice (8-week-aged female) were euthanized, and then the spleen was removed from each mouse. Then, hemolysis treatment was performed to isolate spleen cells. The obtained spleen cells were intravenously transplanted into CB6F1 mice (8-week-aged female), which are C57BL/6 and BALB/c F1 mice, to prepare a model, and splenomegaly was induced. For transplantation, spleen cells for 1.2 BALB/c mouse were used for one CB6F1 mouse.
Each test substance shown in Table 64 was weighed and dissolved in a 0.5% methyl cellulose solution, thereby preparing test substance solutions of 0.3 to 10 mg/mL.
A vehicle (0.5% methyl cellulose solution) or test substance was orally administered to each CB6F1 mouse after transplantation at a dose of 3 to 50 mg/kg in terms of body weight twice a day for 10 days from the day after transplantation. The mouse was euthanized on the 11th day from the start of administration, then the spleen was removed therefrom, and the wet weight of the spleen was measured. For each of CB6F1 mice that had not undergone transplantation as a control group, the wet weight of the spleen was also measured.
The splenomegaly formation inhibition rate when the spleen weights of the mice to which the vehicle was administered after transplantation and the mice on which transplantation had not been performed were 0% and 100%, respectively, was calculated.

Each structure is given as a SMILES string. Where a name gives a salt, the structure may show the parent alone.

Sequence of PIM1 transgenic cells (Ba/F3) (P11309 whole entry, stated change not applied): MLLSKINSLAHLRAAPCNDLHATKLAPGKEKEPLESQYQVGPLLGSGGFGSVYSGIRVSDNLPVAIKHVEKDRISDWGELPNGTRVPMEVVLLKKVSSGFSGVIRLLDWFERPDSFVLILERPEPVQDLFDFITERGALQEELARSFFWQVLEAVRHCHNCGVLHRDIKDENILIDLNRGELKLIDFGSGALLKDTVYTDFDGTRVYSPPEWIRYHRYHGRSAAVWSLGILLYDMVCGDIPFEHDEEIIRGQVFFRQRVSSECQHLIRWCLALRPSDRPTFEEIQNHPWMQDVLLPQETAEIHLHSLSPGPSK
T1 sequence (P11309 whole entry): as the sequence (P11309 whole entry, stated change not applied) above

For the compound `C[C@H](Nc1cc(-c2n[nH]c(=O)o2)cc(F)c1Cl)[C@H]1CC[C@H](N)CC1` [Example 177, 5-[3-({(1S)-1-[(1r,4S)-4-aminocyclohexyl]ethyl}amino)-4-chloro-5-fluorophenyl]-1,3,4-oxadiazol-2(3H)-one hydrochloride], half-maximal inhibition in experiment [1] (IC50) required 0.8 nM. Further, the GI50 in experiment [2] is 26 nM. Moreover, in experiment [3], the inhibition in vivo at 10 mg/kg worked out at 23.7% and the inhibition in vivo at 20 mg/kg stood at 39.2%.
As for `Cc1c(F)cc(-c2n[nH]c(=O)o2)cc1N[C@@H](C)[C@H]1CC[C@H](N)CC1` [Example 172, 5-[3-({(1S)-1-[(1r,4S)-4-aminocyclohexyl]ethyl}amino)-5-fluoro-4-methylphenyl]-1,3,4-oxadiazol-2(3H)-one dihydrochloride], the IC50 – broadly, the midpoint of a concentration-inhibition curve – in experiment [1] was 2.5 nM. Moreover, the GI50 in experiment [2] worked out at 49 nM. For the same compound, in experiment [3], the inhibition in vivo at 20 mg/kg is 19.3%.
As to `C[C@@H]1CNCC[C@@H]1[C@H](C)Nc1cc(-c2n[nH]c(=O)o2)ccc1C(F)(F)F` [Example 217, 5-[3-({(1S)-1-[(3S,4S)-3-methylpiperidin-4-yl]ethyl}amino)-4-(trifluoromethyl)phenyl]-1,3,4-oxadiazol-2(3H)-one], the IC50 in experiment [1] is 2.8 nM. Besides, in experiment [2], the GI50 was determined as 26 nM. Besides, in experiment [3], the inhibition in vivo at 10 mg/kg came to 36.3% and the inhibition in vivo at 20 mg/kg stood at 41.7%.
`Cc1c(F)cc(-c2n[nH]c(=O)o2)cc1N[C@@H](C)[C@H]1CCNC[C@H]1F` [Example 227, 5-[3-fluoro-5-({(1S)-1-[(3S,4R)-3-fluoropiperidin-4-yl]ethyl}amino)-4-methylphenyl]-1,3,4-oxadiazol-2(3H)-one] showed an IC50 in experiment [1] of 7.7 nM. In experiment [2], the GI50 was determined as 24 nM. Moreover, in experiment [3], the inhibition in vivo at 6 mg/kg was determined as 16.7% and the inhibition in vivo at 20 mg/kg was 32.7%.
The like results for `CC[C@@H]1CNCC[C@@H]1[C@H](C)Nc1cc(-c2n[nH]c(=O)o2)cc(F)c1C` [Example 229, 5-[3-({(1S)-1-[(3S,4S)-3-ethylpiperidin-4-yl]ethyl}amino)-5-fluoro-4-methylphenyl]-1,3,4-oxadiazol-2(3H)-one] were, in that order, 5.1 nM, 19 nM, 14.4% and 35.1%.
In experiment [1], `C[C@@H]1CNCC[C@@H]1[C@H](C)Nc1cc(-c2n[nH]c(=O)o2)cc(F)c1OC(F)F` [Example 214, 5-[4-(difluoromethoxy)-3-fluoro-5-({(1S)-1-[(3S,4S)-3-methylpiperidin-4-yl]ethyl}amino)phenyl]-1,3,4-oxadiazol-2(3H)-one] came in with an IC50 of 1.8 nM. In addition, the GI50 in experiment [2] stood at 34 nM. For the same compound, in experiment [3], the inhibition in vivo at 10 mg/kg was 23.3% and the inhibition in vivo at 20 mg/kg amounted to 25.3%.
For `C[C@H](Nc1cc(-c2n[nH]c(=O)o2)ccc1C(F)(F)F)[C@@H]1C[C@H](N)C1(C)C` [Example 137, 5-[3-({(1S)-1-[(1R,3S)-3-amino-2,2-dimethylcyclobutyl]ethyl}amino)-4-(trifluoromethyl)phenyl]-1,3,4-oxadiazol-2(3H)-one hydrochloride], the IC50 in experiment [1] turned out to be 2.2 nM. Further, the GI50 in experiment [2] turned out to be 27 nM. Further, in experiment [3], the inhibition in vivo at 30 mg/kg was found to be 47.5%.
The matching figures for `C[C@H](Nc1cc(-c2n[nH]c(=O)o2)ccc1C(F)(F)F)[C@H]1CC[C@H](N)CC1` [Example 106, 5-[3-({(1S)-1-[(1r,4S)-4-aminocyclohexyl]ethyl}amino)-4-(trifluoromethyl)phenyl]-1,3,4-oxadiazol-2(3H)-one hydrochloride]: 1.5 nM, 19 nM and 39.8%.
On to `C[C@H](Nc1cc(-c2n[nH]c(=O)o2)ccc1C(F)(F)F)C1(F)CCNCC1` [Example 125, 5-[3-{[(1S)-1-(4-fluoropiperidin-4-yl)ethyl]amino}-4-(trifluoromethyl)phenyl]-1,3,4-oxadiazol-2(3H)-one hydrochloride], for which, in experiment [1], inhibition was half-maximal at 2.9 nM (IC50). The GI50 in experiment [2] came to 40 nM. Also, the inhibition in vivo at 30 mg/kg in experiment [3] is 45.1%.
In turn, `N[C@H]1CC[C@H](CCc2cc(-c3n[nH]c(=O)o3)ccc2C(F)(F)F)CC1` [Example 27, 5-[3-{2-[(1r,4s)-4-aminocyclohexyl]ethyl}-4-(trifluoromethyl)phenyl]-1,3,4-oxadiazol-2(3H)-one hydrochloride] displayed an IC50 in experiment [1] of 4.1 nM. Besides, the GI50 in experiment [2] was determined as 200 nM.
Regarding `NCCc1ccc(-c2cc(-c3n[nH]c(=O)o3)ccc2C(F)(F)F)cc1` [Example 22, 5-[4′-(2-aminoethyl)-6-(trifluoromethyl)[1,1′-biphenyl]-3-yl]-1,3,4-oxadiazol-2(3H)-one hydrochloride], it took 27 nM to reach half-maximal inhibition in experiment [1] (IC50). For the same compound, the GI50 in experiment [2] stood at 2200 nM.
As to `NCCCCCCNc1cc(-c2n[nH]c(=O)o2)ccc1C(F)(F)F` [Example 4, 5-{3-[(6-aminohexyl)amino]-4-(trifluoromethyl)phenyl}-1,3,4-oxadiazol-2(3H)-one], it took 50 nM to reach half-maximal inhibition in experiment [1] (IC50). Moreover, the GI50 in experiment [2] was 3000 nM.
The like results for `O=c1[nH]nc(-c2ccc(Cl)c(OC[C@H]3C[C@@H](N4CCNCC4)C3)c2)o1` [Example 242, 5-(4-chloro-3-{[(1s,3s)-3-(piperazin-1-yl)cyclobutyl]methoxy}phenyl)-1,3,4-oxadiazol-2(3H)-one] were, in that order, 10 nM and 2600 nM.
The like results for `NCC(O)C1CCN(c2cc(-c3n[nH]c(=O)o3)ccc2C(F)(F)F)CC1` (stereo not drawn) [Example 14, 5-{3-[4-(2-amino-1-hydroxyethyl)piperidin-1-yl]-4-(trifluoromethyl)phenyl}-1,3,4-oxadiazol-2(3H)-one hydrochloride] were, in that order, 12 nM and 1300 nM.
The matching figures for `N[C@H]1CC[C@H](COc2cc(-c3n[nH]c(=O)o3)ccc2Br)CC1` [Example 238, 5-(3-{[(1r,4r)-4-aminocyclohexyl]methoxy}-4-bromophenyl)-1,3,4-oxadiazol-2(3H)-one]: 2.5 nM and 87 nM.
In experiment [1], `C[C@@H]1CNCC[C@@H]1[C@H](C)N1CCC(=O)c2c(F)cc(-c3n[nH]c(=O)o3)cc21` [Example 245, 5-fluoro-1-{(1S)-1-[(3S,4S)-3-methylpiperidin-4-yl]ethyl}-7-(5-oxo-4,5-dihydro-1,3,4-oxadiazol-2-yl)-2,3-dihydroquinolin-4(1H)-one hydrochloride] showed an IC50 of 4.2 nM. The GI50 in experiment [2] turned out to be 3200 nM.
In turn, `CCN[C@H]1CC[C@H]([C@H](C)Nc2cc(-c3n[nH]c(=O)o3)ccc2C(F)(F)F)CC1` [Example 193, 5-[3-({(1S)-1-[(1r,4S)-4-(ethylamino)cyclohexyl]ethyl}amino)-4-(trifluoromethyl)phenyl]-1,3,4-oxadiazol-2(3H)-one hydrochloride] came in with an IC50 in experiment [1] of 6.1 nM. In addition, the GI50 in experiment [2] is 160 nM.
The like results for `CC(C)c1c(F)cc(-c2n[nH]c(=O)o2)cc1N[C@@H](C)[C@H]1CC[C@H](N)CC1` [Example 233, 5-[3-({(1S)-1-[(1r,4S)-4-aminocyclohexyl]ethyl}amino)-5-fluoro-4-(propan-2-yl)phenyl]-1,3,4-oxadiazol-2(3H)-one hydrochloride] were, in that order, 5.5 nM and 44 nM.
The compound `NCCC1CCCN(c2cc(-c3n[nH]c(=O)o3)ccc2C(F)(F)F)C1` (stereo not drawn) [Example 11, 5-{3-[3-(2-aminoethyl)piperidin-1-yl]-4-(trifluoromethyl)phenyl}-1,3,4-oxadiazol-2(3H)-one hydrochloride] returned an IC50 in experiment [1] of 13 nM. In addition, the GI50 in experiment [2] was 330 nM.
The matching figures for `C[C@@H](CN)Oc1ccc(-c2cc(-c3n[nH]c(=O)o3)ccc2C(F)(F)F)cc1` [Example 24, 5-[4′-{[(2S)-1-aminopropan-2-yl]oxy}-6-(trifluoromethyl)[1,1′-biphenyl]-3-yl]-1,3,4-oxadiazol-2(3H)-one hydrochloride]: 39 nM and 870 nM.
